Patent US5284850A, “Terpene amino alcohols and medicinal uses thereof” (Kuraray Co., Ltd., priority 1985, dated 1994)

System: sensitized bronchial muscle
Assay: Antiallergic action: inhibition of egg albumin-induced contraction of sensitized guinea pig bronchial muscle
Assay type: tissue-based, guinea pigs of Hartley strain
Conditions: Cavia porcellus; for inhibition at 10 µM: 10^-5 M; for inhibition at 1 µM: 10^-6 M; for inhibition at 0.1 µM: 10^-7 M; for inhibition at 0.01 µM: 10^-8 M
Procedure: Male guinea pigs of Hartley strain (body weight: about 250 g) were intraperitoneally or intramuscularly dosed with egg albumin (dose 100 mg/kg) and the same procedure was repeated after 3 days. After 3 to 4 weeks, the guinea pi-as were bled to death and the sensitized bronchial muscle was excised and cut into 1.5 mm thick rings. Three rings were joined to prepare a specimen. The specimen was suspended in a tissue bath and a load of 1 g was applied. […] After stabilization of the specimen (after about 1 hour), histamine hydrochloride was added to the bath at a final concentration of 10^-5 M. The contraction curve was recorded. After the contraction had been stabilized, the specimen was washed with 3 portions of Ringer's solution at 10-minute intervals to stabilize the contraction (about 1 hour was required). Then, the test compound was added to the tissue bath and, after an interval of 10 minutes, 5 mg/ml of egg albumin was added. The contraction amplitude of the specimen was measured and the percent inhibition was calculated according to the following formula. [formula] A: Contraction amplitude of control group when egg albumin is added A': Contraction amplitude of dosage group when egg albumin is added
H: Contraction amplitude of control group when histamine hydrochloride is added
H': Contraction amplitude of dosage group when histamine hydrochloride is added

## CC(C)CCCC(C)CCCC(C)(O)C(C)N (stereo not drawn) [Compound (61)]
  inhibition at 10 µM: 70%
  inhibition at 1 µM: 48%
  inhibition at 0.1 µM: 24%

## CNC(CO)C(C)(O)CCCC(C)CCCC(C)C (stereo not drawn) [Compound (62)]
  inhibition at 10 µM: 39%
  inhibition at 1 µM: 35%
  inhibition at 0.1 µM: 12%

## CC(C)CCCC(C)CCCC(C)(O)C(CO)NC1CCN(Cc2ccccc2)CC1 (stereo not drawn) [Compound (63)]
  inhibition at 1 µM: 55%
  inhibition at 0.1 µM: 45%
  inhibition at 0.01 µM: 11%

## CC(C)CCCC(C)CCCC(C)(O)C(CO)n1ccnc1 (stereo not drawn) [Compound (64)]
  inhibition at 0.1 µM: 63%

## COc1ccc(CN2CCN(C(CO)C(C)(O)CCCC(C)CCCC(C)C)CC2)c(OC)c1OC (stereo not drawn) [Compound (65)]
  inhibition at 10 µM: 73%
  inhibition at 1 µM: 54%
  inhibition at 0.1 µM: 37%

## CC(C)CCCC(C)CCCC(C)(O)C(CO)N(C)C(=O)c1cccnc1 (stereo not drawn) [Compound (66), N-methyl-N-(1,3-dihydroxy-3,7,11-trimethyldodecan-2-yl)nicotinamide]
  inhibition at 10 µM: 77%
  inhibition at 1 µM: 72%
  inhibition at 0.1 µM: 81%

## CC(C)CCCC(C)CCCC(C)(O)C(CO)NCCO (stereo not drawn) [Compound (67)]
  inhibition at 10 µM: 46%
  inhibition at 1 µM: 49%
  inhibition at 0.1 µM: 18%

## CC(C)CCCC(C)CCCC(C)(O)C(CO)N1CCSCC1 (stereo not drawn) [Compound (68)]
  inhibition at 10 µM: 38%
  inhibition at 1 µM: 36%
  inhibition at 0.1 µM: 22%

## CC(C)CCCC(C)CCCC(C)(O)C(CO)NCCCN1CCOCC1 (stereo not drawn) [Compound (69)]
  inhibition at 1 µM: 65%
  inhibition at 0.1 µM: 52%

## CNC(C)C(C)(O)CCCC(C)(O)CCCC(C)C (stereo not drawn) [Compound (70), 2-(methylamino)-3,7,11-trimethyl-3,7-dodecanediol]
  inhibition at 1 µM: 42%
  inhibition at 0.1 µM: 19%

## CC(C)CCCC(C)(O)CCCC(C)(O)C(C)N(C)Cc1ccccc1 (stereo not drawn) [Compound (71), 2-(benzylmethylamino)-3,7,11-trimethyl-3,7-dodecanediol]
  inhibition at 1 µM: 37%
  inhibition at 0.1 µM: 46%

## CC(C)CCCC(C)CCCC(C)CCCC(C)(O)C(CO)N(C)C (stereo not drawn) [Compound (72)]
  inhibition at 10 µM: 51%
  inhibition at 1 µM: 60%
  inhibition at 0.1 µM: 24%
  inhibition at 0.01 µM: 9%

## CC(C)CCCC(C)CCCC(C)CCCC(C)(O)C(CO)N(C)CCO (stereo not drawn) [Compound (73)]
  inhibition at 10 µM: 36%
  inhibition at 1 µM: 58%
  inhibition at 0.1 µM: 47%
  inhibition at 0.01 µM: 21%

## CC(C)CCCC(C)CCCC(C)CCCC(C)(O)C(CO)N(C)CCOC(=O)c1cccnc1 (stereo not drawn) [Compound (74)]
  inhibition at 10 µM: 43%
  inhibition at 1 µM: 16%
  inhibition at 0.1 µM: 20%
